Data: BindingDB's records for doi:10.1021/jm00007a013 (Chul Research Center, 1995)

Assay: In vitro inhibition of DHT (dihydrotestosterone) on proliferation of androgen-sensitive cancer Schionogi (SC-3) cells

Row | SMILES | IC50 [nM]
1 | CCC(CC)N(C=O)[C@H]1CCC2C3CC[C@H]4N(C)C(=O)CC[C@]4(C)C3CC[C@@]21C (stereo partly drawn) [N-(1-Ethyl-propyl)-N-((4aR,6aS,7S,11aR)-1,4a,6a-trimethyl-2-oxo-hexadecahydro-indeno[5,4-f]quinolin-7-yl)-formamide] | 90
2 | CCCCN(C=O)[C@H]1CCC2C3CC[C@H]4N(C)C(=O)CC[C@]4(C)C3CC[C@@]21C (stereo partly drawn) [N-Butyl-N-((4aR,6aS,7S,11aR)-1,4a,6a-trimethyl-2-oxo-hexadecahydro-indeno[5,4-f]quinolin-7-yl)-formamide] | 166
3 | CCCCCCCN(C=O)[C@H]1CCC2C3CC[C@H]4N(C)C(=O)CC[C@]4(C)C3CC[C@@]21C (stereo partly drawn) [N-Heptyl-N-((4aR,6aS,7S,11aR)-1,4a,6a-trimethyl-2-oxo-hexadecahydro-indeno[5,4-f]quinolin-7-yl)-formamide] | 58
4 | CCCCCCN(C=O)[C@H]1CCC2C3CC[C@H]4N(C)C(=O)CC[C@]4(C)C3CC[C@@]21C (stereo partly drawn) [N-Hexyl-N-((4aR,6aS,7S,11aR)-1,4a,6a-trimethyl-2-oxo-hexadecahydro-indeno[5,4-f]quinolin-7-yl)-formamide] | 89
5 | CC(C)N(C=O)[C@H]1CCC2C3CC[C@H]4N(C)C(=O)CC[C@]4(C)C3CC[C@@]21C (stereo partly drawn) [N-Isopropyl-N-((4aR,6aS,7S,11aR)-1,4a,6a-trimethyl-2-oxo-hexadecahydro-indeno[5,4-f]quinolin-7-yl)-formamide] | 162
6 | CN(C=O)[C@H]1CCC2C3CC[C@H]4N(C)C(=O)CC[C@]4(C)C3CC[C@@]21C (stereo partly drawn) [N-Methyl-N-((4aR,6aS,7S,11aR)-1,4a,6a-trimethyl-2-oxo-hexadecahydro-indeno[5,4-f]quinolin-7-yl)-formamide] | 1480
7 | CCCN(C=O)[C@H]1CCC2C3CC[C@H]4N(C)C(=O)CC[C@]4(C)C3CC[C@@]21C (stereo partly drawn) [N-Propyl-N-((4aR,6aS,7S,11aR)-1,4a,6a-trimethyl-2-oxo-hexadecahydro-indeno[5,4-f]quinolin-7-yl)-formamide] | 989

More lines, in order of falling IC50, values ahead:

Row | IC50 [nM] | SMILES
8 | 994 | CC(C)CN(C=O)[C@H]1CCC2C3CC[C@H]4N(C)C(=O)CC[C@]4(C)C3CC[C@@]21C (stereo partly drawn) [N-Isobutyl-N-((4aR,6aS,7S,11aR)-1,4a,6a-trimethyl-2-oxo-hexadecahydro-indeno[5,4-f]quinolin-7-yl)-formamide]
9 | 463 | CCN(CC)C(=O)[C@H]1CCC2C3CC[C@H]4N(C)C(=O)CC[C@]4(C)C3CC[C@@]21C (stereo partly drawn) [(4aR,6aS,7S,11aR)-1,4a,6a-Trimethyl-2-oxo-hexadecahydro-indeno[5,4-f]quinoline-7-carboxylic acid diethylamide]
10 | 171 | CN1C(=O)CC[C@]2(C)C3CC[C@@]4(C)C(CC[C@@H]4N(C=O)CCC(C)(C)C)C3CC[C@@H]12 (stereo partly drawn) [N-(3,3-Dimethyl-butyl)-N-((4aR,6aS,7S,11aR)-1,4a,6a-trimethyl-2-oxo-hexadecahydro-indeno[5,4-f]quinolin-7-yl)-formamide]
11 | 96 | CCCCCN(C=O)[C@H]1CCC2C3CC[C@H]4N(C)C(=O)CC[C@]4(C)C3CC[C@@]21C (stereo partly drawn) [N-Pentyl-N-((4aR,6aS,7S,11aR)-1,4a,6a-trimethyl-2-oxo-hexadecahydro-indeno[5,4-f]quinolin-7-yl)-formamide]
12 | 50 | CCCCCCCCN(C=O)[C@H]1CCC2C3CC[C@H]4N(C)C(=O)CC[C@]4(C)C3CC[C@@]21C (stereo partly drawn) [N-Octyl-N-((4aR,6aS,7S,11aR)-1,4a,6a-trimethyl-2-oxo-hexadecahydro-indeno[5,4-f]quinolin-7-yl)-formamide]
13 | 46 | CC(C)CCN(C=O)[C@H]1CCC2C3CC[C@H]4N(C)C(=O)CC[C@]4(C)C3CC[C@@]21C (stereo partly drawn) [N-(3-Methyl-butyl)-N-((4aR,6aS,7S,11aR)-1,4a,6a-trimethyl-2-oxo-hexadecahydro-indeno[5,4-f]quinolin-7-yl)-formamide]
